Results from patent US20100069668A1, “5-[(2R)-[2-[2-(2,2,2-TRIFLUOROETHOXY)PHENOXY]ETHYL]AMINO]PROPYL]-2-METHOXYBENZENESULFONAMIDE” (priority 2006, published 2010).
Counter-ions that a name gives are not always drawn.

Experiments:
α1 receptor [1] = experiment: antagonism of norepinephrine-induced contraction of isolated vas deferens smooth muscle; assay type: cell-based; conditions: isolated rat vas deferens
Description: (§1) The antagonism and antagonistic selectivity of α1 receptor of different isolated smooth muscle specimens treated with the compound having formula (I).
(§2) Methods: a 24-hour fasting rat was hit on the head to induce coma, and quickly dissected the abdominal cavity, its urethra, aorta and vas deferens were respectively taken out and recorded the contraction curve with instruments, then the different concentrations and volumes of norepinephrine were added to get noradrenalin's accumulation curve, rinsed immediately to return to baseline, then different concentrations of test drugs were added. Noradrenaline was added repeatedly after 5˜8 minute to obtain average contractile response curve of noradrenalin under different concentrations of antagonist, the contraction pD2 of noradrenaline on the urethra, aorta, vas deferens under different concentrations of samples for test was calculated, the pA2 value for antagonism of contraction caused by the samples against norepinephrine was obtain by regressing with the concentration of test samples and pD2.
(§3) Results: pA2 value for the contraction of the different organizations inhibition of smooth muscle specimens induced by the hydrochlorate of compound I and tamsulosin hydrochloride against norepinephrine is shown in Table 1. […]

α1 receptor [2] = experiment: antagonism of norepinephrine-induced contraction of isolated urethra smooth muscle; assay type: cell-based, rat; conditions: for pA2 for antagonism of norepinephrine-induced contraction, urethra: isolated rat urethra; for the intensity ratio of the contraction caused by inhibiting norepinephrine, urethra/aorta / the intensity ratio of the contraction caused by inhibiting norepinephrine, urethra/vas deferens: calculated by pA2 value
Description: as §1, §2
Results: pA2 value for the contraction of the different organizations inhibition of smooth muscle specimens induced by the hydrochlorate of compound I and tamsulosin hydrochloride against norepinephrine is shown in Table 1. The intensity ratio of contraction inhibitive effect of urethra and aorta, urethra and vas deferens smooth muscle, caused by the sample against noradrenaline is disclosed in table 2, which is calculated by pA2 value.

α1 receptor [3] = experiment: antagonism of norepinephrine-induced contraction of isolated aorta smooth muscle; assay type: cell-based; conditions: isolated rat aorta
Description: as §1, §2, §3

SMILES | pA2 value for the contraction caused by inhibiting norepinephrine, vas deferens (α1 receptor [1]) | pA2 for antagonism of norepinephrine-induced contraction, urethra (α1 receptor [2]) | the intensity ratio of the contraction caused by inhibiting norepinephrine, urethra/aorta (α1 receptor [2]) | the intensity ratio of the contraction caused by inhibiting norepinephrine, urethra/vas deferens (α1 receptor [2]) | pA2 value for the contraction caused by inhibiting norepinephrine, aorta (α1 receptor [3])
CCOc1ccccc1OCCN[C@H](C)Cc1ccc(OC)c(S(N)(=O)=O)c1 [Tamsulosin hydrochloride] | 10.12 | 9.22 | 3.83 | 0.123 | 8.63
COc1ccc(C[C@@H](C)NCCOc2ccccc2OCC(F)(F)F)cc1S(N)(=O)=O [the hydrochlorate of compound I, 5-[(2R)-[2-[2-[2-(2,2,2-trifluoroethoxy)phenoxy]ethyl]amino]propyl]-2-methoxybenzenesulfonamide] | 10.08 | 11.00 | 607.31 | 8.120 | 8.21
